From PubChem BioAssay AID328 (DTP/NCI, 2004)
“And” between values parts separate entries of the source, which are not always exact repeats. Identical values can stand only once. Inconclusive results and toxic doses are left out.

Test system: BDF1 mice, P388 leukemia ip, median survival T/C
Test: NCI In Vivo Anticancer Drug Screen. Data for tumor model P388 Leukemia (intraperitoneal) in B6D2F1 (BDF1) mice
Conditions: endpoint: median survival time, higher = longer survival
Method in brief: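 Survival ratio, drug arm over vehicle arm, in mice with a transplanted tumour.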

[1] = dose: 100.0 mg/kg/injection, schedule: Q04DX003 (ip), vehicle: saline
[2] = dose: 200.0 mg/kg/injection, schedule: Q04DX003 (ip), vehicle: saline
[3] = dose: 400.0 mg/kg/injection, schedule: Q04DX003 (ip), vehicle: saline
[4] = dose: 100.0 mg/kg/injection, schedule: Q01DX009 (ip), vehicle: Klucel (hydroxypropylcellulose) (HPC)
[5] = dose: 50.0 mg/kg/injection, schedule: Q01DX009 (ip), vehicle: Klucel (hydroxypropylcellulose) (HPC)
[6] = dose: 200.0 mg/kg/injection, schedule: Q01DX009 (ip), vehicle: Klucel (hydroxypropylcellulose) (HPC)
[7] = dose: 400.0 mg/kg/injection, schedule: Q01DX009 (ip), vehicle: Klucel (hydroxypropylcellulose) (HPC)
[8] = dose: 25.0 mg/kg/injection, schedule: Q01DX009 (ip), vehicle: Klucel (hydroxypropylcellulose) (HPC)
[9] = dose: 100.0 mg/kg/injection, schedule: Q04DX003 (ip), vehicle: Klucel (hydroxypropylcellulose) (HPC)
[10] = dose: 200.0 mg/kg/injection, schedule: Q04DX003 (ip), vehicle: Klucel (hydroxypropylcellulose) (HPC)
[11] = dose: 400.0 mg/kg/injection, schedule: Q04DX003 (ip), vehicle: Klucel (hydroxypropylcellulose) (HPC)

With `CC(=O)OC1C(=O)C(O)C(C)OC1O[C@@H]1C[C@@]2(C)[C@@H]3CC=C4[C@@H](C[C@H](O)C(=O)C4(C)C)[C@]3(C)C(=O)C[C@]2(C)[C@H]1[C@@](C)(O)C(=O)/C=C/C(C)(C)O` (some centres undefined) the T/C (dose: 0.13 mg/kg/injection, schedule: Q01DX009 (ip), vehicle: Klucel (hydroxypropylcellulose) (HPC)) was 104 % of control, the T/C (dose: 0.16 mg/kg/injection, schedule: Q01DX010 (ip), vehicle: saline) was 107 % of control and 110 % of control and the T/C (dose: 0.25 mg/kg/injection, schedule: Q01DX009 (ip), vehicle: Klucel (hydroxypropylcellulose) (HPC)) was 109 % of control. For the same compound, the T/C (dose: 0.25 mg/kg/injection, schedule: Q01DX010 (ip), vehicle: carboxymethylcellulose (CMC)) was 90 % of control, the T/C (dose: 0.33 mg/kg/injection, schedule: Q01DX010 (ip), vehicle: saline) was 109 % of control and 110 % of control and the T/C (dose: 0.5 mg/kg/injection, schedule: Q01DX009 (ip), vehicle: Klucel (hydroxypropylcellulose) (HPC)) was 118 % of control. The T/C (dose: 0.5 mg/kg/injection, schedule: Q01DX010 (ip), vehicle: carboxymethylcellulose (CMC)) was 87 % of control and 90 % of control, the T/C (dose: 0.67 mg/kg/injection, schedule: Q01DX010 (ip), vehicle: saline) was 108 % of control and 110 % of control and the T/C (dose: 1.0 mg/kg/injection, schedule: Q01DX009 (ip), vehicle: Klucel (hydroxypropylcellulose) (HPC)) was 113 % of control. The T/C (dose: 1.25 mg/kg/injection, schedule: Q01DX010 (ip), vehicle: saline) was 109 % of control and 110 % of control, the T/C (dose: 1.4 mg/kg/injection, schedule: Q01DX009 (ip), vehicle: saline) was 150 % of control and the T/C (dose: 2.0 mg/kg/injection, schedule: Q01DX009 (ip), vehicle: Klucel (hydroxypropylcellulose) (HPC)) was 90 % of control. The T/C (dose: 2.5 mg/kg/injection, schedule: Q01DX010 (ip), vehicle: saline) was 110 % of control and 111 % of control and the T/C (dose: 2.6 mg/kg/injection, schedule: Q01DX009 (ip), vehicle: saline) was 120 % of control.
In the case of `CCOC(=O)NC(=O)CC`, the T/C (dose: 25.0 mg/kg/injection, schedule: Q01DX005 (ip), vehicle: saline) is reported as 114 % of control, the T/C (dose: 25.0 mg/kg/injection, schedule: Q01DX009 (ip), vehicle: saline) is reported as 102 % of control and the T/C (dose: 50.0 mg/kg/injection, schedule: Q01DX005 (ip), vehicle: saline) is reported as 114 % of control. For the same compound, the T/C (dose: 50.0 mg/kg/injection, schedule: Q01DX009 (ip), vehicle: saline) was 102 % of control, the T/C (dose: 50.0 mg/kg/injection, schedule: Q04DX003 (ip), vehicle: saline) was 103 % of control and 104 % of control and the T/C (dose: 100.0 mg/kg/injection, schedule: Q01DX005 (ip), vehicle: saline) was 96 % of control. For the same compound, the T/C (dose: 100.0 mg/kg/injection, schedule: Q01DX009 (ip), vehicle: saline) was 115 % of control, the T/C [1] was 96 % of control and 103 % of control and 213 % of control and the T/C (dose: 200.0 mg/kg/injection, schedule: Q01DX005 (ip), vehicle: saline) was 122 % of control. For the same compound, the T/C (dose: 200.0 mg/kg/injection, schedule: Q01DX009 (ip), vehicle: saline) was 112 % of control, the T/C [2] was 105 % of control and 112 % of control and 114 % of control and the T/C (dose: 400.0 mg/kg/injection, schedule: Q01DX009 (ip), vehicle: saline) was 106 % of control. The T/C [3] was 99 % of control and 113 % of control and the T/C (dose: 600.0 mg/kg/injection, schedule: Q04DX003 (ip), vehicle: saline) was 114 % of control.
For `C/C=C(/C)C(=O)O[C@H]1CC[N+]2([O-])CC=C(COC(=O)[C@@](O)([C@H](C)OC)C(C)(C)O)[C@H]12` (some centres undefined), the T/C (dose: 40.0 mg/kg/injection, schedule: Q01DX010 (ip), vehicle: saline) was 105 % of control, the T/C (dose: 50.0 mg/kg/injection, schedule: Q01DX010 (ip), vehicle: saline) was 86 % of control and the T/C (dose: 80.0 mg/kg/injection, schedule: Q01DX010 (ip), vehicle: saline) was 111 % of control.
For `COc1ccccc1CN1CCCN(Cc2ccccc2OC)C1c1ccc(N(CCCl)CCCl)cc1C`, the T/C (dose: 65.0 mg/kg/injection, schedule: Q01DX009 (ip), vehicle: Klucel (hydroxypropylcellulose) (HPC)) was 95 % of control and the T/C [4] was 109 % of control.
With `CC(=O)C(=O)NC1/C=C(C)\C=C/C(O)C/C=C(C)\C=C/C(O)CC2OC(=O)C1(C)C(=O)C2C` (centres undefined) the T/C [5] was 109 % of control and 122 % of control, the T/C [6] was 153 % of control and 163 % of control and the T/C [7] was 171 % of control.
For `CCCCCCCCCCCCCCCCN(C)Cc1ccccc1`, the T/C [1] was 107 % of control, the T/C [2] was 108 % of control and the T/C [3] was 116 % of control.
For `CC(C)(O)c1ccccc1[S+]1OC(C)(C)c2ccccc21` (centres undefined), the T/C (dose: 100.0 mg/kg/injection, schedule: Q01DX001 (ip), vehicle: saline with Tween-80) was 98 % of control, the T/C (dose: 100.0 mg/kg/injection, schedule: Q01DX001 (ip), vehicle: saline) was 100 % of control and the T/C (dose: 200.0 mg/kg/injection, schedule: Q01DX001 (ip), vehicle: saline with Tween-80) was 103 % of control. For the same compound, the T/C (dose: 200.0 mg/kg/injection, schedule: Q01DX001 (ip), vehicle: saline) was 102 % of control, the T/C (dose: 400.0 mg/kg/injection, schedule: Q01DX001 (ip), vehicle: saline with Tween-80) was 118 % of control and the T/C (dose: 400.0 mg/kg/injection, schedule: Q01DX001 (ip), vehicle: saline) was 117 % of control.
In the case of `CS(=O)(=O)Nc1ccc(NS(C)(=O)=O)c(SCc2ccccc2)c1`, the T/C (dose: 100.0 mg/kg/injection, schedule: Q01DX001 (ip), vehicle: Klucel (hydroxypropylcellulose) (HPC)) is reported as 100 % of control, the T/C (dose: 200.0 mg/kg/injection, schedule: Q01DX001 (ip), vehicle: Klucel (hydroxypropylcellulose) (HPC)) is reported as 100 % of control and the T/C (dose: 400.0 mg/kg/injection, schedule: Q01DX001 (ip), vehicle: Klucel (hydroxypropylcellulose) (HPC)) is reported as 100 % of control.
`CC(=O)Nc1ccc(OCCOC(=O)Nc2c(Cl)cccc2Cl)cc1` was tested, and the T/C [8] was 111 % of control, the T/C [5] was 100 % of control and the T/C [4] was 100 % of control.
With `CC(CC(=O)O)(CC(=O)O)c1ccccc1` the T/C [4] was 100 % of control, the T/C [9] was 104 % of control and the T/C [6] was 95 % of control. The T/C [10] was 95 % of control, the T/C [7] was 100 % of control and the T/C [11] was 90 % of control.
`NC(=S)N/N=C/c1ccccn1` was tested, and the T/C (dose: 1.0 mg/kg/injection, schedule: Q01DX010 (ip), vehicle: carboxymethylcellulose (CMC)) was 110 % of control, the T/C (dose: 2.0 mg/kg/injection, schedule: Q01DX010 (ip), vehicle: carboxymethylcellulose (CMC)) was 110 % of control and the T/C (dose: 30.0 mg/kg/injection, schedule: Q01DX010 (ip), vehicle: saline) was 112 % of control.
In the case of `Cc1cc(C)c(N)c(C)c1N`, the T/C [8] is reported as 118 % of control, the T/C [5] is reported as 95 % of control and the T/C (dose: 100.0 mg/kg/injection, schedule: Q04DX003 (ip), vehicle: other) is reported as 105 % of control. The T/C (dose: 200.0 mg/kg/injection, schedule: Q04DX003 (ip), vehicle: other) was 100 % of control and the T/C (dose: 400.0 mg/kg/injection, schedule: Q04DX003 (ip), vehicle: other) was 105 % of control.
With `O/N=c1/ccn(O)c2ccccc12` the T/C (dose: 0.14 mg/kg/injection, schedule: Q01DX009 (ip), vehicle: saline) was 168 % of control, the T/C (dose: 0.19 mg/kg/injection, schedule: Q04DX003 (ip), vehicle: saline) was 116 % of control and the T/C (dose: 0.29 mg/kg/injection, schedule: Q04DX003 (ip), vehicle: saline) was 120 % of control. The T/C (dose: 0.34 mg/kg/injection, schedule: Q01DX009 (ip), vehicle: saline) was 155 % of control and 183 % of control and 190 % of control, the T/C (dose: 0.44 mg/kg/injection, schedule: Q04DX003 (ip), vehicle: saline) was 180 % of control and the T/C (dose: 0.51 mg/kg/injection, schedule: Q01DX009 (ip), vehicle: saline) was 162 % of control and 170 % of control and 195 % of control. For the same compound, the T/C (dose: 0.66 mg/kg/injection, schedule: Q04DX003 (ip), vehicle: saline) was 210 % of control, the T/C (dose: 1.0 mg/kg/injection, schedule: Q04DX003 (ip), vehicle: saline) was 172 % of control and the T/C (dose: 1.5 mg/kg/injection, schedule: Q04DX003 (ip), vehicle: saline) was 181 % of control. The T/C (dose: 4.65 mg/kg/injection, schedule: Q04DX003 (ip), vehicle: saline) was 173 % of control, the T/C (dose: 11.0 micrograms/kg/injection, schedule: Q01DX009 (ip), vehicle: saline) was 104 % of control and the T/C (dose: 22.0 micrograms/kg/injection, schedule: Q01DX009 (ip), vehicle: saline) was 108 % of control. The T/C (dose: 45.0 micrograms/kg/injection, schedule: Q01DX009 (ip), vehicle: saline) was 104 % of control.
For `Cc1ccc(NS(=O)(=O)c2ccc(F)cc2)c(C)c1`, the T/C [9] was 100 % of control, the T/C [10] was 100 % of control and the T/C [11] was 100 % of control.
`CN1CC(=O)N=C1N` was tested, and the T/C [4] was 90 % of control, the T/C [6] was 95 % of control and the T/C [7] was 100 % of control.
